Measurements taken from patent US20260364185A1, “Estrogen Receptor Modulator and Use Thereof” (JIANGSU VCARE PHARMATECH CO., LTD., priority 2023, published 2026).

Tested on: MCF7 cells
Assay: MCF7 cell activity test (CCK8 proliferation inhibition)
Assay type: cell-based
Conditions: Homo sapiens, MCF7, 144 h, 6 days incubation
Experimental: Experimental Example 1: MCF7 cell activity test
Cell culture: MCF7 cells (culture conditions: MEM medium+20% FBS+1% essential amino acids++1 mg/100 ml insulin, 37° C., 5% CO2). Plating: The cells subcultured into the logarithmic growth phase were collected and transferred into a centrifuge tube, and centrifuged at 800 rpm for 5 min. The cells were resuspended in complete medium and counted. The cells were diluted and adjusted to a final concentration of 30,000 cells/mL. The cells were then seeded into a 96-well plate with 100 μL per well and incubated in an incubator overnight. Administration: Each group of drug solutions was added into the 96-well plate, 100 μL per well, n=3 for each drug concentration. Meanwhile, negative wells (n=6) and blank wells (n=3) were set up. The 96-well plate was incubated in the incubator for further 6 days. CCK8 reagent was added to the 96-well plate, 20 μL per well, and then the plate was placed in the incubator for further 4 h. The absorbance of the solution was measured at a wavelength of 450 nm using an enzyme reader. The proliferation inhibition rate was calculated and the half inhibitory concentration IC50 value was calculated using Graphpad Prism 6.0 software.

SMILES	IC50
Cn1nc(N2CCC(=O)NC2=O)c2cc(F)c(C3CCN(C[C@H]4CCCC[C@@H]4CN4CCN(c5ccc([C@@H]6c7ccc(O)cc7CC[C@@H]6c6ccccc6)cc5)CC4)CC3(F)F)cc21 (stereo in doubt) [IV-12]	< 100 nM
O=C1CCC(NC(=O)c2ccc(C3CCN(C[C@@H]4CCCC[C@H]4CN4CCN(c5ccc([C@@H]6c7ccc(O)cc7CC[C@@H]6c6ccccc6)cc5)CC4)CC3)cc2F)C(=O)N1 (stereo partly drawn) [Compound I-67, N-(2,6-dioxopiperidin-3-yl)-2-fluoro-4-(1-(((1R,2R)-2-((4-(4-((1R,2S)-6-hydroxy-2-phenyl-1,2,3,4-tetrahydronaphthalen-1-yl)phenyl)piperazin-1-yl)methyl)cyclohexyl)methyl)piperidin-4-yl)benzamide]	< 100 nM
O=C1CCC(NC(=O)c2ccc(N3CCN(C[C@@H]4CCCC[C@H]4CN4CCN(c5ccc([C@@H]6c7ccc(O)cc7CC[C@@H]6c6ccccc6)cc5)CC4)CC3)cc2F)C(=O)N1 (stereo partly drawn) [Compound I-69]	< 25 nM
Cc1nc2cc(N3CCN(C[C@@H]4CCCC[C@H]4CN4CCN(c5ccc([C@@H]6c7ccc(O)cc7CC[C@@H]6c6ccccc6)cc5)CC4)CC3)ccc2n1C1CCC(=O)NC1=O (stereo partly drawn) [Compound V-1]	< 100 nM
O=C1CCC(n2cnc3cc(N4CCN(C[C@@H]5CCCC[C@H]5CN5CCN(c6ccc([C@@H]7c8ccc(O)cc8CC[C@@H]7c7ccccc7)cc6)CC5)CC4)c(F)cc32)C(=O)N1 (stereo partly drawn) [Compound V-2]	< 50 nM
O=C1CCC(n2cnc3cc(N4CCN(C[C@@H]5CCCC[C@H]5CN5CCN(c6ccc([C@@H]7c8ccc(O)cc8CC[C@@H]7c7ccccc7)cc6)CC5)CC4)ccc32)C(=O)N1 (stereo partly drawn) [Compound V-3]	< 50 nM
O=C1CCC(n2cnc3cc(C4CCN(C[C@@H]5CCCC[C@H]5CN5CCN(c6ccc([C@@H]7c8ccc(O)cc8CC[C@@H]7c7ccccc7)cc6)CC5)CC4)c(F)cc32)C(=O)N1 (stereo partly drawn) [Compound V-5]	< 100 nM
O=C1CCC(n2cnc3cc(C4CCN(C[C@@H]5CCCC[C@H]5CN5CCN(c6ccc([C@@H]7c8ccc(O)cc8CC[C@@H]7c7ccccc7)cc6)CC5)CC4)ccc32)C(=O)N1 (stereo partly drawn) [Compound V-7]	< 100 nM
O=C1CCC(NC(=O)c2ccc(N3CCN(C[C@@H]4CCCC[C@H]4CN4CCN(c5ccc([C@@H]6c7ccc(O)cc7CC[C@@H]6c6ccccc6)cc5)CC4)CC3)cn2)C(=O)N1 (stereo partly drawn) [III-1, N-(2,6-dioxopiperidin-3-yl)-5-(4-(((1R,2R)-2-((4-(4-((1R,2S)-6-hydroxy-2-phenyl-1,2,3,4-tetrahydronaphthalen-1-yl)phenyl)piperazin-1-yl)methyl)cyclohexyl)methyl)piperazin-1-yl)pyridinecarboxamide]	< 25 nM
O=C1CCC(NC(=O)c2ccc(N3CCN(C[C@H]4CCCC[C@@H]4CN4CCN(c5ccc([C@@H]6c7ccc(O)cc7CC[C@@H]6c6ccccc6)cc5)CC4)CC3)cn2)C(=O)N1 (stereo partly drawn) [III-2, N-(2,6-dioxopiperidin-3-yl)-5-(4-(((1S,2S)-2-((4-(4-((1R,2S)-6-hydroxy-2-phenyl-1,2,3,4-tetrahydronaphthalen-1-yl)phenyl)piperazin-1-yl)methyl)cyclohexyl)methyl)piperazin-1-yl)pyridinecarboxamide]	< 100 nM
O=C1CCC(NC(=O)c2ccc(C3CCN(C[C@@H]4CCCC[C@H]4CN4CCN(c5ccc([C@@H]6c7ccc(O)cc7CC[C@@H]6c6ccccc6)cc5)CC4)CC3)cn2)C(=O)N1 (stereo partly drawn) [III-3, N-(2,6-dioxopiperidin-3-yl)-5-(1-(((1R,2R)-2-((4-(4-((1R,2S)-6-hydroxy-2-phenyl-1,2,3,4-tetrahydronaphthalen-1-yl)phenyl)piperazin-1-yl)methyl)cyclohexyl)methyl)piperidin-4-yl)pyridinecarboxamide]	< 100 nM
Cn1nc(C2CCC(=O)NC2=O)c2cc(F)c(N3CCN(C[C@@H]4CCCC[C@H]4CN4CCN(c5ccc([C@@H]6c7ccc(O)cc7CC[C@@H]6c6ccccc6)cc5)CC4)CC3)cc21 (stereo partly drawn) [IV-1]	< 50 nM
